For 29 compounds, inhibition, IC50 and Ratio IC50 results are on record in ChEMBL document CHEMBL5257065, “Isosteviol derivatives as protein tyrosine Phosphatase-1B inhibitors: Synthesis, biological evaluation and molecular docking” (Bioorg Med Chem, 2023).

For orientation: inhibition means the percentage by which the read-out fell short of the control. A higher inhibition goes with a strong effect. As usually defined, the IC50 is the concentration needed to halve the response being measured.

The target of experiment [1] is T1, Tyrosine-protein phosphatase non-receptor type 1 (Homo sapiens) (UniProt P18031).
T1 sequence (whole entry): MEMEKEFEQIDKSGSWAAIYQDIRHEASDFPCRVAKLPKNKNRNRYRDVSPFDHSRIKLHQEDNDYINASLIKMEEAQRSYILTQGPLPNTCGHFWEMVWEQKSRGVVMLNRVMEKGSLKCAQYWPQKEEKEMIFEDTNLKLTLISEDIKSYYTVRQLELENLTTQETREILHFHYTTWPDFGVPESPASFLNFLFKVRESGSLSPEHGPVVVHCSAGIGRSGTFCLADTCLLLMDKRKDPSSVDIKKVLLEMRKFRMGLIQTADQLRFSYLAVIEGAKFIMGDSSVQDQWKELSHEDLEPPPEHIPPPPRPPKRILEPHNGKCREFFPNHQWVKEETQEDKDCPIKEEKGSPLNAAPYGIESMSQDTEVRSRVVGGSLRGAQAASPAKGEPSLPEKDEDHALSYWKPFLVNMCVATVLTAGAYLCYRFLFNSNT
In words: Inhibition of PTP1B (unknown origin) at 10 micromol/L by DAS-ELISA. The conditions noted are these: dose 10.0 µmol/L.

Experiment [2] addresses T2, M-phase inducer phosphatase 2 (Homo sapiens, UniProt P30305).
T2 sequence (P30305 whole entry): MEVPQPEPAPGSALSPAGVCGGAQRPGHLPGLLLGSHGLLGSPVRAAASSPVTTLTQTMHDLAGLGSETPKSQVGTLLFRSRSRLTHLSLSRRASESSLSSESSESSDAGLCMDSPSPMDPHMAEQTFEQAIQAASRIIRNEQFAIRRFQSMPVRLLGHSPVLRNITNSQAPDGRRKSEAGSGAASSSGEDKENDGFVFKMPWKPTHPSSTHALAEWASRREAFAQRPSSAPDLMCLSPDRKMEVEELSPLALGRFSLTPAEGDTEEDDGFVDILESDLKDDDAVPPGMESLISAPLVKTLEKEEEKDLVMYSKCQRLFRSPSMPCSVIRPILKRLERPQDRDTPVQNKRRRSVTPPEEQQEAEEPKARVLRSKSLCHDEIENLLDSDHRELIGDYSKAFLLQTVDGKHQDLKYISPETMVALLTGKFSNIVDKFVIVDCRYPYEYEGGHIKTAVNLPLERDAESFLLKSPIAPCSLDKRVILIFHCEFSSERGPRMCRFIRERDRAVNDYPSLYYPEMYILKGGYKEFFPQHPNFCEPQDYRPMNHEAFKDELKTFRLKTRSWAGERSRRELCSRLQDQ
In words: Inhibition of CDC25B (unknown origin) by DAS-ELISA. Background: In an ELISA, binding on a coated surface is turned into a signal by an enzyme label.

Experiment [3] is filed under the species Homo sapiens. In words: Selectivity ratio of IC50 for TCPTP (unknown origin) to IC50 for PTP1B (unknown origin) by DAS-ELISA.
Experiment [4] has as its target T3, Tyrosine-protein phosphatase non-receptor type 2 (Homo sapiens, UniProt P17706).
T3 sequence (P17706 whole entry): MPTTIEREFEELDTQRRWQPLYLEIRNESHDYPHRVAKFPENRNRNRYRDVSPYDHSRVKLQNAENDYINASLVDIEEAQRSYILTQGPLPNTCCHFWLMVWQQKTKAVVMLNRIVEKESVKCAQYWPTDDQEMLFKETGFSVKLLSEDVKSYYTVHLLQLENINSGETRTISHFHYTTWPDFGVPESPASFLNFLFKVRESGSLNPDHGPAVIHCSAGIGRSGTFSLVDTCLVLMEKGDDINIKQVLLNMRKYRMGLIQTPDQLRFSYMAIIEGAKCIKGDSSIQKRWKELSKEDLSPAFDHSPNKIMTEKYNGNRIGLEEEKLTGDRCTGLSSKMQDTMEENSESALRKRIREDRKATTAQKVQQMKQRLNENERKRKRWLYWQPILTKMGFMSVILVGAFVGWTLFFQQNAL
In words: Inhibition of TCPTP (unknown origin) by DAS-ELISA.

The species named for experiment [5] is Homo sapiens. As to the kind of experiment: Selectivity ratio of IC50 for CDC25B (unknown origin) to IC50 for PTP1B (unknown origin) by DAS-ELISA.
Experiment [6] has as its target T4, Tyrosine-protein phosphatase non-receptor type 1 (Homo sapiens, UniProt P18031).
T4 sequence (P18031 whole entry): T1 sequence (whole entry)
In words: Inhibition of PTP1B (unknown origin) by DAS-ELISA.

In the case of `C[C@@]12CC[C@@H]3[C@@](CC[C@H]4[C@@]3(C)CCC[C@@]4(C)C(=O)OCc3ccccc3Br)(CC1=O)C2`, the inhibition in experiment [1] stood at 50.3%.

In turn, `CCOC(=O)[C@]1(C)CCC[C@@]2(C)[C@@H]3CC[C@@]4(C)C[C@]3(CC[C@@H]21)C[C@H]4OC(=O)c1ccccc1` registered an inhibition in experiment [1] of 75.5%.

The compound `C[C@@]12CC[C@@H]3[C@@](CC[C@H]4[C@@]3(C)CCC[C@@]4(C)C(=O)OCCCCN3CCCCC3)(CC1=O)C2` returned an inhibition in experiment [1] of 77.7%.

Turning to `COC(=O)[C@]1(C)CCC[C@@]2(C)[C@@H]3CC[C@@]4(C)C[C@]3(CC[C@@H]21)CC4=O`, the inhibition in experiment [1] was 70.1%.

In the case of `C[C@@]12CC[C@@H]3[C@@](CC[C@H]4[C@@]3(C)CCC[C@@]4(C)C(=O)O)(C/C1=N\O)C2`, the inhibition in experiment [1] amounted to 61.9%.

Compound `C[C@@]12CC[C@@H]3[C@@](CC[C@H]4[C@@]3(C)CCC[C@@]4(C)C(=O)OCCN3CCCCC3)(CC1=O)C2` had an inhibition in experiment [1] of 74.2%.

In experiment [1], `CCCOC(=O)[C@]1(C)CCC[C@@]2(C)[C@@H]3CC[C@@]4(C)C[C@]3(CC[C@@H]21)C/C4=N\O` came in with an inhibition of 76.3%.

Compound `C[C@@]12CC[C@@H]3[C@@](CC[C@H]4[C@@]3(C)CCC[C@@]4(C)C(=O)O)(C[C@H]1O)C2` registered an inhibition in experiment [1] of 36.2%.

On to `CCCOC(=O)[C@]1(C)CCC[C@@]2(C)[C@@H]3CC[C@@]4(C)C[C@]3(CC[C@@H]21)CC4=O`, for which, in experiment [1], the inhibition came out at 61.9%.

As for `C[C@@]12CC[C@@H]3[C@@](CC[C@H]4[C@@]3(C)CCC[C@@]4(C)C(=O)OCc3ccc(Br)cc3)(CC1=O)C2`, the IC50 worked out at 3550 nM in experiment [2], 3240 nM in experiment [4] and 330 nM in experiment [6]. The values for the Ratio IC50 in the experiment listed under Homo sapiens [3] and in the experiment filed under Homo sapiens [5] were 3.5 and 6, respectively. Further, the inhibition in experiment [1] amounted to 79.6%.

In the case of `C[C@@]12CC[C@@H]3[C@@](CC[C@H]4[C@@]3(C)CCC[C@@]4(C)C(=O)OCc3ccccc3)(CC1=O)C2`, in experiment [1], the inhibition was 52.4%.

For `C[C@@]12CC[C@@H]3[C@@](CC[C@H]4[C@@]3(C)CCC[C@@]4(C)C(=O)OCc3ccccc3I)(CC1=O)C2`, the IC50 in experiment [2] was determined as 3240 nM; in experiment [4], 1410 nM; in experiment [6], 400 nM. Further, the Ratio IC50 is 3.5 in the experiment listed under Homo sapiens [3] and 6 in the experiment filed under Homo sapiens [5]. In experiment [1], the inhibition turned out to be 82.6%.

The compound `C[C@@]12CC[C@@H]3[C@@](CC[C@H]4[C@@]3(C)CCC[C@@]4(C)C(=O)OCc3cccc(C#N)c3)(CC1=O)C2` registered an inhibition in experiment [1] of 76%.

In turn, `C[C@@]12CC[C@@H]3[C@@](CC[C@H]4[C@@]3(C)CCC[C@@]4(C)C(=O)OCCCCCBr)(CC1=O)C2` displayed an inhibition in experiment [1] of 71.9%.

`CCOC(=O)[C@]1(C)CCC[C@@]2(C)[C@@H]3CC[C@@]4(C)C[C@]3(CC[C@@H]21)C[C@H]4O` returned an inhibition in experiment [1] of 67.2%.

`C[C@@]12CC[C@@H]3[C@@](CC[C@H]4[C@@]3(C)CCC[C@@]4(C)C(=O)OCCCCBr)(CC1=O)C2` registered an inhibition in experiment [1] of 70.9%.

`C[C@@]12CC[C@@H]3[C@@](CC[C@H]4[C@@]3(C)CCC[C@@]4(C)C(=O)OCCBr)(CC1=O)C2`: the inhibition in experiment [1] amounted to 73.6%.

In experiment [1], `Cc1ccc(COC(=O)[C@]2(C)CCC[C@@]3(C)[C@@H]4CC[C@@]5(C)C[C@]4(CC[C@@H]32)CC5=O)cc1` returned an inhibition of 71.8%.

`C[C@@]12CC[C@@H]3[C@@](CC[C@H]4[C@@]3(C)CCC[C@@]4(C)C(=O)OCc3ccccc3Cl)(CC1=O)C2`: the inhibition in experiment [1] was 43.8%.

Consider `CCOC(=O)[C@]1(C)CCC[C@@]2(C)[C@@H]3CC[C@@]4(C)C[C@]3(CC[C@@H]21)C[C@H]4OC(=O)c1ccc(O)cc1`, for which the IC50 in experiment [2] came out at 2340 nM; in experiment [4], 2630 nM; in experiment [6], 360 nM. The Ratio IC50 in the experiment filed under Homo sapiens [3] was 3.5; in the experiment listed under Homo sapiens [5], 6. The same compound returned an inhibition in experiment [1] of 79%.

In turn, `CCOC(=O)[C@]1(C)CCC[C@@]2(C)[C@@H]3CC[C@@]4(C)C[C@]3(CC[C@@H]21)C/C4=N\O` showed an inhibition in experiment [1] of 50.8%.

Consider `CCOC(=O)[C@]1(C)CCC[C@@]2(C)[C@@H]3CC[C@@]4(C)C[C@]3(CC[C@@H]21)[C@H](Br)C4=O`, for which the IC50 in experiment [2] came to 3310 nM; in experiment [4], 1700 nM; in experiment [6], 240 nM. The Ratio IC50 in the experiment filed under Homo sapiens [3] was found to be 7; in the experiment listed under Homo sapiens [5] it was 14. Moreover, the inhibition in experiment [1] was 81.7%.

For the compound `C[C@@]12CC[C@@H]3[C@@](CC[C@H]4[C@@]3(C)CCC[C@@]4(C)C(=O)OCCN3CCNCC3)(CC1=O)C2`, the inhibition in experiment [1] was found to be 78.5%. The IC50 in experiment [6] turned out to be 800 nM.

In experiment [1], `Cc1ccc(S(=O)(=O)N/N=C2/C[C@]34CC[C@H]5[C@@](C)(CCC[C@@]5(C)C(=O)O)[C@@H]3CC[C@@]2(C)C4)cc1` showed an inhibition of 75.3%.

The compound `CC(=O)O[C@@H]1C[C@]23CC[C@H]4[C@@](C)(CCC[C@@]4(C)C(=O)O)[C@@H]2CC[C@@]1(C)C3` gave an inhibition in experiment [1] of 74%.

In turn, `CCOC(=O)[C@]1(C)CCC[C@@]2(C)[C@@H]3CC[C@@]4(C)C[C@]3(CC[C@@H]21)C/C4=N\OC` yielded an inhibition in experiment [1] of 71.5%.

In experiment [1], `CCOC(=O)[C@]1(C)CCC[C@@]2(C)[C@@H]3CC[C@@]4(C)C[C@]3(CC[C@@H]21)CC4=O` came in with an inhibition of 73.9%.

In experiment [1], `COC(=O)[C@]1(C)CCC[C@@]2(C)[C@@H]3CC[C@@]4(C)C[C@]3(CC[C@@H]21)C/C4=N\O` registered an inhibition of 22%.

`C[C@@]12CC[C@@H]3[C@@](CC[C@H]4[C@@]3(C)CCC[C@@]4(C)C(=O)O)(CC1=O)C2` [ISOSTEVIOL]: the IC50 in experiment [2] is 2090 nM; in experiment [4], 1580 nM; in experiment [6], 2270 nM. Also, in experiment [1], the inhibition was 63.6%.
